Columns and labels:
barnyardgrass [1] = experiment: Test A preemergence; assay type: in vivo, Echinochloa crus-galli; conditions: preemergence
Outline: (§1)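 Visual injury rating, 0–100 (0 no effect, 100 complete control), vs untreated controls ~10 days after treatment in greenhouse. Pre: directed soil spray on seeded loam/sand. Post: 2–10 cm plants, 1–2 leaf stage. Formulation: non-phytotoxic solvent mix + surfactant.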

crabgrass, large [2] = experiment: Test A preemergence; assay type: in vivo, Digitaria sanguinalis; conditions: preemergence
Outline: as §1

foxtail, giant [3] = experiment: Test A preemergence; assay type: in vivo, Setaria faberii; conditions: preemergence
Outline: as §1

morningglory [4] = experiment: Test A preemergence; assay type: in vivo, Ipomoea spp.; conditions: preemergence
Outline: as §1

pigweed [5] = experiment: Test A preemergence; assay type: in vivo, Amaranthus retroflexus; conditions: preemergence
Outline: as §1

velvetleaf [6] = experiment: Test A preemergence; assay type: in vivo, Abutilon theophrasti; conditions: preemergence
Outline: as §1

wheat [7] = experiment: Test A preemergence; assay type: in vivo, Triticum aestivum; conditions: preemergence
Outline: as §1

corn [8] = experiment: Test A preemergence; assay type: in vivo, Zea mays; conditions: preemergence
Outline: as §1

barnyardgrass [9] = experiment: Test A postemergence; assay type: in vivo, Echinochloa crus-galli; conditions: Postemergence
Outline: as §1

crabgrass, large [10] = experiment: Test A postemergence; assay type: in vivo, Digitaria sanguinalis
Outline: as §1

foxtail, giant [11] = experiment: Test A postemergence; assay type: in vivo, Setaria faberii
Outline: as §1

morningglory [12] = experiment: Test A postemergence; assay type: in vivo, Ipomoea spp.
Outline: as §1

pigweed [13] = experiment: Test A postemergence; assay type: in vivo, Amaranthus retroflexus
Outline: as §1

velvetleaf [14] = experiment: Test A postemergence; assay type: in vivo, Abutilon theophrasti
Outline: as §1

wheat [15] = experiment: Test A postemergence; assay type: in vivo, Triticum aestivum
Outline: as §1

corn [16] = experiment: Test A postemergence; assay type: in vivo, Zea mays
Outline: as §1

rice = experiment: Test B flood; assay type: in vivo, Oryza sativa; conditions: 250 g ai/ha, visual rating on 0 to 100 scale (0 no effect, 100 complete control), 13 to 15 days
Outline: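 Paddy-water application: seedlings at 2-leaf stage, flood depth 3 cm maintained for the test duration. Evaluation after 13–15 days in the greenhouse by eye relative to controls; 0–100 scale.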

sedge, umbrella = experiment: Test B flood; assay type: in vivo, Cyperus difformis; conditions: 250 g ai/ha, visual rating on 0 to 100 scale (0 no effect, 100 complete control), 13 to 15 days
Procedure: (§2) Seeds selected from rice (Oryza sativa), sedge, umbrella (small-flower umbrella sedge Cyperus difformis), ducksalad (Heteranthera limosa), and barnyardgrass (Echinochloa crus-galli) were grown to the 2-leaf stage for testing. At time of treatment, test pots were flooded to 3 cm above the soil surface, treated by application of test compounds directly to the paddy water, and then maintained at that water depth for the duration of the test.
(§3) Treated plants and controls were maintained in a greenhouse for 13 to 15 days, after which time all species were compared to controls and visually evaluated. Plant response ratings, summarized in Table B, are based on a scale of 0 to 100 where 0 is no effect and 100 is complete control. A dash (-) response means no test result.

ducksalad = experiment: Test B flood; assay type: in vivo, Heteranthera limosa; conditions: 250 g ai/ha, visual rating on 0 to 100 scale (0 no effect, 100 complete control), 13 to 15 days
Procedure: as §2, §3

barnyardgrass [17] = experiment: Test B flood; assay type: in vivo, Echinochloa crus-galli; conditions: 250 g ai/ha, visual rating on 0 to 100 scale (0 no effect, 100 complete control), 13 to 15 days
Procedure: as §2, §3

[18] = 125 g ai/ha, visual injury, 0 to 100 scale, approx. 10 days
[19] = 500 g ai/ha, visual injury after approx. 10 days, 0 to 100 scale (0 no effect, 100 complete control)
[20] = 125 g ai/ha, 0 to 100 scale, 0 no effect, 100 complete control
[21] = 500 g ai/ha, visual rating after approx. 10 days, 0 to 100 scale (0 no effect, 100 complete control)
[22] = Postemergence, 500 g ai/ha, visual rating after approx. 10 days, 0 to 100 scale (0 no effect, 100 complete control)
[23] = postemergence, 125 g ai/ha, about 10 days, visual rating on 0 to 100 scale (0 no effect, 100 complete control)

Compound | Barnyardgrass plant response rating (barnyardgrass [1]; [18]) | Barnyardgrass plant response rating (barnyardgrass [1]; [19]) | Crabgrass, Large plant response rating (crabgrass, large [2]; [18]) | Crabgrass, Large plant response rating (crabgrass, large [2]; [19]) | Foxtail, Giant plant response rating (foxtail, giant [3]; [18]) | Foxtail, Giant plant response rating (foxtail, giant [3]; [19]) | Morningglory plant response rating (morningglory [4]; [18]) | Morningglory plant response rating (morningglory [4]; [19]) | Pigweed plant response rating (pigweed [5]; [18]) | Pigweed plant response rating (pigweed [5]; [19]) | Velvetleaf plant response rating (velvetleaf [6]; [18]) | Velvetleaf plant response rating (velvetleaf [6]; [19]) | Wheat plant response rating (wheat [7]; [18]) | Wheat plant response rating (wheat [7]; [19]) | Corn plant response rating (corn [8]; [18]) | Corn plant response rating (corn [8]; [19]) | Barnyardgrass plant response rating (barnyardgrass [9]; [20]) | Barnyardgrass plant response rating (barnyardgrass [9]; [21]) | Crabgrass, Large plant response rating (crabgrass, large [10]; [22]) | Crabgrass, Large plant response rating (crabgrass, large [10]; [23]) | further results
CCc1cc(C(=O)Nc2ccc(F)cc2)nn1Oc1ccnc(C(F)(F)F)c1 [Compound 89] | 0 | 0 | 0 | 10 | 0 | 10 | 0 | 0 | 0 | 0 | 0 | 0 | 0 | 0 | 0 | 0 | 0 | 0 | 0 | 0 | Foxtail, Giant plant response rating (foxtail, giant [11]; [22]): 0; Foxtail, Giant plant response rating (foxtail, giant [11]; [23]): 0; Morningglory plant response rating (morningglory [12]; [22]): 0; Morningglory plant response rating (morningglory [12]; [23]): 0; Pigweed plant response rating (pigweed [13]; [22]): 0; Pigweed plant response rating (pigweed [13]; [23]): 0; Velvetleaf plant response rating (velvetleaf [14]; [22]): 0; Velvetleaf plant response rating (velvetleaf [14]; [23]): 0; Wheat plant response rating (wheat [15]; [22]): 0; Wheat plant response rating (wheat [15]; [23]): 0; Corn plant response rating (corn [16]; [22]): 20; Corn plant response rating (corn [16]; [23]): 0; Plant response rating, Rice (rice): 0; Plant response rating, Sedge, Umbrella (sedge, umbrella): 0; Plant response rating, Ducksalad (ducksalad): 0; Plant response rating, Barnyardgrass (barnyardgrass [17]): 0
Cc1cc(C(=O)Nc2ccc(F)cc2)nn1Oc1ccnc(C(F)(F)F)c1 [Compound 90] | 0 | 0 | 0 | 20 | 0 | 10 | 0 | 10 | 0 | 10 | 0 | 0 | 0 | 10 | 0 | 40 | 0 | 0 | 0 | 0 | Foxtail, Giant plant response rating (foxtail, giant [11]; [22]): 0; Foxtail, Giant plant response rating (foxtail, giant [11]; [23]): 0; Morningglory plant response rating (morningglory [12]; [22]): 10; Morningglory plant response rating (morningglory [12]; [23]): 0; Pigweed plant response rating (pigweed [13]; [22]): 0; Pigweed plant response rating (pigweed [13]; [23]): 0; Velvetleaf plant response rating (velvetleaf [14]; [22]): 0; Velvetleaf plant response rating (velvetleaf [14]; [23]): 0; Wheat plant response rating (wheat [15]; [22]): 0; Wheat plant response rating (wheat [15]; [23]): 0; Corn plant response rating (corn [16]; [22]): 30; Corn plant response rating (corn [16]; [23]): 0; Plant response rating, Rice (rice): 0; Plant response rating, Sedge, Umbrella (sedge, umbrella): 0; Plant response rating, Ducksalad (ducksalad): 0; Plant response rating, Barnyardgrass (barnyardgrass [17]): 0

Reference: patent US20150105252A1, “SUBSTITUTED PYRAZOLES AS HERBICIDES” (E I DU PONT DE NEMOURS AND COMPANY, priority 2013, published 2015)
